The results in this text go back to US20240239790A1, “7-Morpholino-1,6-Naphthyridin-5-yl Derivatives and Pharmaceutical Compositions Thereof Useful as DNA-PK Inhibitor” (adMare Therapeutics Society, priority 2021, published 2024).

Where two headings read alike, the source gives them in different places.

One assay concerns the target T1, DNA-PK (Homo sapiens, UniProt P78527).
T1 construct: purchased Invitrogen PR9107A
The assay is described as follows: DNA-PK Assay for Biochemical Enzymatic Inhibition (ADP Glo Kinase assay). The note with it: DNA-PK enzyme. How it is done:
A biochemical assay was performed to identify IC50 values against DNA-PK activity in a two-step reaction with a kinase reaction followed by ADP Glo™ Kinase assay Kit (Promega V9102).
Three-fold serial dilutions of compounds in DMSO were prepared in kinase assay buffer (50 mM HEPES pH 7.5, 20 mM MgCl2, 100 mM KCl, 50 μM DTT, 10 μg/ml calf thymus DNA, 0.01% Tween 20). Kinase assay buffer was used to prepare compound treatments to 0.02% DMSO (dimethyl sulphoxide) content. DMSO controls were prepared to produce a maximum and minimum luminescence signal for normalization. Substrate (Anaspec, AS-60210-5) and ATP (Promega V9102) and ATP mix was prepared by dilution in kinase assay buffer for 434.4 μM and 64.4 μM final assay concentrations, respectively. Compounds and control were added to 25 ng DNA-PK enzyme (Invitrogen, PR9107A) diluted in kinase buffer in assay plate (Corning 267459) and incubated for 15 minutes at room temperature prior to addition of substrate and ATP mix.
Throughout the assay, each time a reagent was added to the microplate, it was centrifuged for 1 minute at 1300 rcf. All reagents were added, and incubations carried out at room temperature. The reaction was then incubated for 60 minutes. ADP-ATP standards at 0, 4, 10, 40, 80, and 100% ADP (prepared as specified in the ADP Glo™ Kinase assay kit) were also added to the microplate at a volume equal to the total kinase reaction. The ADP Glo™ Kinase Assay kit was then used to quantify DNA-PK activity: following the 60-minute incubation, a 1:1 volume of ADP Glo reagent was added to all wells, then following a further 45-minute incubation, a 1:1 volume of Kinase Detection Reagent was added to all wells. After this two-step assay, plates were incubated in a Synergy-Neo2 plate reader for 30 minutes with gentle shaking, followed by endpoint luminescent read Luminescence data was normalized by subtracting the background signal and expressing all background-adjusted values as a percentage of the average maximum signal. The data was then expressed as percent inhibition by subtracting from 100% (i.e. maximum luminescent signal will be 0% inhibition) and the resulting data plotted against ten concentration points on a logarithmic scale, using GraphPad Prism. Non-linear regression analysis was performed on each concentration response curve and the log [inhibitor] vs response—variable slope (four parameters) equation was selected to generate IC50 values.
In general terms: ADP-Glo first removes unused ATP, then detects ADP through luciferase.

In assay [1] the target is T2, DNA-PK phosphorylation at Serine 2056 (Homo sapiens, UniProt P78527).
T2 construct: FaDu cells were purchased from ATCC; host or cells: FaDu
The assay is described as follows: Cellular Assay for Inhibition of DNA-PK Phosphorylation at Serine 2056 in FaDu cells (sandwich ELISA, neocarzinostatin). The class given is cell-based. The settings on record: pSer2056 DNA-PK. The essentials:
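FaDu cells pre-treated with compound (0.3% DMSO) for 1 h, then neocarzinostatin 1 μg/mL final added for 2 h to induce DSBs. Protein-normalised lysates read by sandwich ELISA for total and pSer2056 DNA-PK; % inhibition normalised between DMSO and NCS controls, IC50 from variable-slope log(inhibitor) fit.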

For assay [2], the system named is pH2AX induction in HCT116 ATM-/- multicellular tumour spheroids. The assay is described as follows: Prodrug Radiation Sensitization in Multicellular Tumour Spheroids, inhibition of pH2AX induction following radiation. The format is cell-based. The method, boiled down:
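HCT116 and FaDu spheroids (~0.5 mm diameter), ATM-deficient lines included, in MEM/10% FBS/10 mM glucose at 37 °C under 20% vs 5% oxygen with stirring. Prodrugs 10 μM down to 3.5 nM, 20 Gy irradiation. pDNA-PK (ser 2056) or pH2AX (ser 139) scored in formalin-fixed cryosections 1 or 2 h post-radiation.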

Where [3] appears, read: neocarzinostatin 1 μg/mL, Table 1.

A word on the IC50: it is the concentration that inhibits the measured activity by half. In the case of `FC1(F)CN(c2cc3ncccc3c(O[C@H]3CC[C@@H](n4ccnc4)CC3)n2)CC(F)(F)O1` [Compound 13, 4-(5-(((1s,4s)-4-(1H-imidazol-1-yl)cyclohexyl)oxy)-1,6-naphthyridin-7-yl)-2,2,6,6-tetrafluoromorpholine], at DNA-PK (Table 1), the IC50 lay within 10 to 150 nM.
Take `CN(C)C(=N[C@H]1CC[C@@H](Oc2nc(N3CCOCC3)cc3ncccc23)CC1)N(C)C` [Compound 129, 1,1,3,3-tetramethyl-2-((1s,4s)-4-((7-morpholino-1,6-naphthyridin-5-yl)oxy)cyclohexyl)guanidine]: the IC50 on DNA-PK (Table 1) fell in the range of 10 to 150 nM.
As a reminder, the EC50 is the concentration at which the effect is half-maximal. As for `CN(C)C(=O)COc1cnc(NC2CCC(Oc3nc(N4CCOCC4)cc4ncc(N(Cc5ncc([N+](=O)[O-])n5C)S(C)(=O)=O)cc34)CC2)nc1` (stereo not shown) [LFA013, N,N-Dimethyl-2-[2-[[4-[[3-[(1-methyl-5-nitro-imidazol-2-yl)methyl-methylsulfonyl-amino]-7-morpholino-1,6-naphthyridin-5-yl]oxy]cyclohexyl]amino]pyrimidin-5-yl]oxy-acetamide], the IC50 was in the range of 10 to 150 nM at DNA-PK (Table 2) and 1000 to 10000 nM in assay [1] (Table 2). The EC50 in assay [2] (20 Gy, 5% O2, inner layers, read-out: Prodrug 5% O2 Inner layers EC50) was 10 to 500 nM; in assay [2] (20 Gy, 5% O2, outer layers, read-out: Prodrug 5% O2 Outer layers EC50) it was 1000 to 10000 nM; in assay [2] (20 Gy, 20% O2, outer layers, read-out: Prodrug 20% O2 Outer layers EC50) it was 1000 to 10000 nM; in assay [2] (value of the (unnamed) effector of the listed prodrug, 20 Gy, 5% O2, inner layers, read-out: Effector 5% O2 Inner layers EC50) it was 10 to 500 nM.
`CC(C)(O)C#Cc1cnc2cc(N3CCOCC3)nc(O[C@H]3CC[C@@H](n4ccnc4)CC3)c2c1` [Compound 159, 4-(5-(((1s,4s)-4-(1H-imidazol-1-yl)cyclohexyl)oxy)-7-morpholino-1,6-naphthyridin-3-yl)-2-methylbut-3-yn-2-ol]: at DNA-PK (Table 1), the IC50 was in the range of 10 to 150 nM.
With `COCC(=O)N[C@H]1CC[C@@H](Oc2nc(N3CCOCC3)cc3ncccc23)CC1` [Compound 105, 2-Methoxy-N-((1s,4s)-4-((7-morpholino-1,6-naphthyridin-5-yl)oxy)cyclohexyl)acetamide], the IC50 at DNA-PK (Table 1) fell in the range of 1 to 10 nM; in assay [1] (setting [3]) it was 100 to 1000 nM.
On to `CN(C)C(=O)COc1ccc(N[C@H]2CC[C@@H](Oc3nc(N4CCOCC4)cc4ncccc34)CC2)nn1` [Compound 57, N,N-dimethyl-2-((6-(((1s,4s)-4-((7-morpholino-1,6-naphthyridin-5-yl)oxy)cyclohexyl)amino)pyridazin-3-yl)oxy)acetamide], for which the IC50 was 10 to 150 nM at DNA-PK (Table 1) and 10000 to 30000 nM in assay [1] (setting [3]).
On to `O=C(NC1CCOCC1)[C@H]1CC[C@@H](Oc2nc(N3CCOCC3)cc3ncccc23)CC1` [Compound 154b, (1S,4S)-4-((7-morpholino-1,6-naphthyridin-5-yl)oxy)-N-(tetrahydro-2H-pyran-4-yl)cyclohexane-1-carboxamide], for which, on DNA-PK (Table 1), the IC50 lay in the range of 10 to 150 nM.
With `Cn1c(COC(=O)Nc2cnc3cc(N4CCOCC4)nc(O[C@H]4CC[C@@H](Nc5ncccn5)CC4)c3c2)cnc1[N+](=O)[O-]` [LFA108, (3-methyl-2-nitro-imidazol-4-yl)methyl N-[7-morpholino-5-[4-(pyrimidin-2-ylamino)cyclohexoxy]-1,6-naphthyridin-3-yl]carbamate], the IC50 on DNA-PK (Table 2) is 10 to 150 nM; in assay [1] (Table 2), 10000 to 30000 nM. Further, the EC50 in assay [2] (Homo sapiens, HCT-116, 20 Gy, 5% O2, inner layers, read-out: Prodrug 5% O2 Inner layers EC50) is 10 to 500 nM; in assay [2] (Homo sapiens, HCT-116, 20 Gy, 5% O2, outer layers, read-out: Prodrug 5% O2 Outer layers EC50), 500 to 1000 nM; in assay [2] (Homo sapiens, HCT-116, 20 Gy, 20% O2, outer layers, read-out: Prodrug 20% O2 Outer layers EC50), 1000 to 10000 nM.
Consider `CN(C)CC(=O)N[C@H]1CC[C@@H](Oc2nc(N3CCOCC3)cc3ncccc23)CC1` [Compound 106, 2-(Dimethylamino)-N-((1s,4s)-4-((7-morpholino-1,6-naphthyridin-5-yl)oxy)cyclohexyl)acetamide], for which the IC50 at DNA-PK (Table 1) was 10 to 150 nM.
Turning to `CCNC(=O)c1cnc2cc(N3CCOCC3)nc(O[C@H]3CC[C@@H](n4ccnc4)CC3)c2c1` [Compound 168, 5-(((1s,4s)-4-(1H-imidazol-1-yl)cyclohexyl)oxy)-N-ethyl-7-morpholino-1,6-naphthyridine-3-carboxamide], on DNA-PK (Table 1), the IC50 was 10 to 150 nM.
For `N#CCC(=O)N[C@H]1CC[C@@H](Oc2nc(N3CCOCC3)cc3ncccc23)CC1` [Compound 107, 2-Cyano-N-((1s,4s)-4-((7-morpholino-1,6-naphthyridin-5-yl)oxy)cyclohexyl)acetamide], the IC50 at DNA-PK (Table 1) is 1 to 10 nM; in assay [1] (setting [3]), 100 to 1000 nM.
As to `CN(C)C(=O)c1cnc2cc(N3CCOCC3)nc(O[C@H]3CC[C@@H](n4ccnc4)CC3)c2c1` [Compound 170, 5-(((1s,4s)-4-(1H-imidazol-1-yl)cyclohexyl)oxy)-N,N-dimethyl-7-morpholino-1,6-naphthyridine-3-carboxamide], at DNA-PK (Table 1), the IC50 fell in the range of 10 to 150 nM.
On to `CCOC(=O)c1cnc2cc(N3CCOCC3)nc(O[C@H]3CC[C@@H](n4ccnc4)CC3)c2c1` [Compound 163, ethyl 5-(((1s,4s)-4-(1H-imidazol-1-yl)cyclohexyl)oxy)-7-morpholino-1,6-naphthyridine-3-carboxylate], for which the IC50 on DNA-PK (Table 1) fell in the range of 10 to 150 nM; in assay [1] (setting [3]) it was 1000 to 10000 nM.
The corresponding values for `Cn1cc([C@H]2CC[C@@H](Oc3nc(N4CCOCC4)cc4ncc(OCCN5CCOCC5)cc34)CC2)cn1` [Compound 6, 4-(5-(((1s,4s)-4-(1-methyl-1H-pyrazol-4-yl)cyclohexyl)oxy)-3-(2-morpholinoethoxy)-1,6-naphthyridin-7-yl)morpholine] are 10 to 150 nM and 100 to 1000 nM.
